The test system of one assay is Zelllinie H69. The assay is described as follows: XTT cell proliferation (growth) test with H69 cells. It counts as cell-based. Conditions: single agent (alleinige Gabe), Figuren 5a, 5b. Background: Formazan colour is commonly taken as a measure of viable cells.
The next assay deals with Zelllinie H82. The assay is described as follows: XTT cell proliferation (growth) test with H82 cells. The conditions noted are these: for Zellwachstum: single agent (alleinige Gabe), H82 cells, Figur 7.
Another assay has as its system OH1-Zellen. Nature of the assay: XTT cell proliferation (growth) test with OH1 cells. The conditions noted are these: single agent (alleinige Gabe), 1 µM to 0,001 µM, 72 h incubation, Figur 2.

Here are results for three molecules from patent publication EP2161024A1, “Combination product for the treatment of cancer” (Universitätsklinikum Hamburg-Eppendorf, priority 2008, dated 2010).

SMILES strings stand for the structures.

`COc1ccc(CCN2CCC(Nc3nc4ccccc4n3Cc3ccc(F)cc3)CC2)cc1` [Astemizol, 1-[(4-Fluorphenyl)methyl]-N-[1-[2-(4-methoxyphenyl)ethyl]-4-piperidyl]benzoimidazol-2-amin]: in the assay with Zelllinie H69, the “Wachstum der Zellen” value is recorded as “nicht zu einer Verringerung des Wachstums”. Moreover, in the assay with Zelllinie H82 (Homo sapiens, NCI-H82, read-out: Hemmung der Proliferation), the inhibition at 5 µM was 50%. Further, the Zellwachstum result with Zelllinie H82 is reported as “kaum Auswirkungen auf das Zellwachstum”. Moreover, the “Wachstum der OH1-Zellen” value in the assay with OH1-Zellen is given as “nicht zu einer Verringerung des Wachstums”.
Take `CC(C)c1c(C(=O)Nc2ccccc2)c(-c2ccccc2)c(-c2ccc(F)cc2)n1CC[C@@H](O)C[C@@H](O)CC(=O)O` [Atorvastatin, (3R,5R)-7-[2-(4-Fluorphenyl)-5-isopropyl-3-phenyl-4-(phenylcarbamoyl)pyrrol-1-yl]-3,5-dihydroxyheptansäure]: the “Wachstum der Zellen” value in the assay with Zelllinie H69 is “nicht zu einer Verringerung des Wachstums”. For the same molecule, the Zellwachstum result in the assay with Zelllinie H82 is reported as “kaum Auswirkungen auf das Zellwachstum”. In the assay on OH1-Zellen, the “Wachstum der OH1-Zellen” value is “nicht zu einer Verringerung des Wachstums”.
As to `CCC(C)C(=O)OC1CC(C)C=C2C=CC(C)C(CCC3CC(O)CC(=O)O3)C21` (stereo not drawn) [Lovastatin, [8-[2-(4-hydroxy-6-oxo-oxan-2-yl)ethyl]-3,7-dimethyl-1,2,3,7,8,8a-hexahydronaphthalen-1-yl]-2-methylbutanoat], the Zellwachstum entry with Zelllinie H82 was “kaum Auswirkungen auf das Zellwachstum”. For the same molecule, the “Wachstum der OH1-Zellen” value with OH1-Zellen is “nicht zu einer Verringerung des Wachstums”.
